The target of test [1] is Mu-type opioid receptor (Rattus norvegicus, UniProt P33535). Description: Inhibition of binding of [3H]DAMGO to opioid receptor mu 1 from rat brain membrane.
In test [2] the target is Delta-type opioid receptor (Rattus norvegicus, UniProt P33533). Kind of test: Inhibition of binding of [3H]-DPDPE to opioid receptor delta 1 from rat brain membrane.

pKi: −log10 of the molar value.

Sequence of Delta-type opioid receptor (P33533 whole entry): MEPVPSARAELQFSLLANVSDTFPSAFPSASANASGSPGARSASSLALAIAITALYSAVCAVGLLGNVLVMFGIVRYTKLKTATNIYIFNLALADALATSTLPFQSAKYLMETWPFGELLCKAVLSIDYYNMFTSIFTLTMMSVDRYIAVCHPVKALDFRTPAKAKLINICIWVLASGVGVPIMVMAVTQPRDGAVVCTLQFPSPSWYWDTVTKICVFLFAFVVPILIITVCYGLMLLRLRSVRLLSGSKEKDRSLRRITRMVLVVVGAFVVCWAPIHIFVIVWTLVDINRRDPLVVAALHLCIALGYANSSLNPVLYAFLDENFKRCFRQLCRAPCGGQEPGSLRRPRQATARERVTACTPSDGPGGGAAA
Sequence of Mu-type opioid receptor (P33535 whole entry): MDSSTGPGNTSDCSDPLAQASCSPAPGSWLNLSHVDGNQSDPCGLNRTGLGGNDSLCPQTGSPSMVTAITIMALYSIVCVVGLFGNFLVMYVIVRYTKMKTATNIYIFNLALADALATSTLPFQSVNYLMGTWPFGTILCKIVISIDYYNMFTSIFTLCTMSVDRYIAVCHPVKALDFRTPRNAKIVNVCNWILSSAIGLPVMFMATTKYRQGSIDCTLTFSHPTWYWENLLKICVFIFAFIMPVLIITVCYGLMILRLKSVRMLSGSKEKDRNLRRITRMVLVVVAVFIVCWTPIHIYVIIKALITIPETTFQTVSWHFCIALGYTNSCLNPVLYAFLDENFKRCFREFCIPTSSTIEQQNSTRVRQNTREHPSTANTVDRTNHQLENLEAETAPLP

`CCN1CCN(/C(=N\c2cc(Cl)cc(Cl)c2)c2ccc(C(=O)N(CC)CC)cc2)CC1`: the figures for the pKi in test [1] and in test [2] were < 6.00 and 6.56, respectively. On the same counts, the results for `C=CCN1CCN(/C(=N\c2cccc(Cl)c2)c2ccc(C(=O)N(CC)CC)cc2)CC1` are < 5.00 and 6.80. For the compound `CCN(CC)C(=O)c1ccc(/C(=N/c2ccccc2Cl)N2CCN(CCOC)CC2)cc1`, the pKi was < 5.00 in test [1] and 7.27 in test [2]. With `CCN(CC)C(=O)c1ccc(/C(=N/c2ccccc2Cl)N2CCN(CCc3cccs3)CC2)cc1`, the pKi is < 5.00 in test [1] and 7.02 in test [2]. Regarding `CCN(CC)C(=O)c1ccc(/C(=N/c2ccccc2)N2CCN(CCc3cccs3)CC2)cc1`, the pKi in test [1] is < 5.00; in test [2] it was 6.12. On the same counts, the results for `CCN1CCN(/C(=N\c2ccccc2Cl)c2ccc(C(=O)N(CC)CC)cc2)CC1` are < 6.00 and 7.04. On the same counts, the results for `C=CCN1CCN(/C(=N\c2ccccc2Cl)c2ccc(C(=O)N(CC)CC)cc2)CC1` are 5.12 and 7.69.

For the compound `CCN(CC)C(=O)c1ccc(/C(=N/c2ccc(Cl)cc2)N2CCN(Cc3ccccc3)CC2)cc1`, the pKi was < 5.00 in test [1] and 6.85 in test [2]. Turning to `CCCN1CCN(/C(=N\c2cccc(Cl)c2)c2ccc(C(=O)N(CC)CC)cc2)CC1`, the pKi in test [1] was 5.02; in test [2] it was 6.75.

With `CCN(CC)C(=O)c1ccc(/C(=N/c2ccccc2C(F)(F)F)N2CCN(Cc3ccccc3)CC2)cc1`, the negative logarithm of the Ki (pKi) in test [1] was 5.92; in test [2] it was 8.91. With `CCN(CC)C(=O)c1ccc(/C(=N/c2ccccc2Cl)N2CCN(Cc3ccccc3)CC2)cc1`, the negative-log Ki (pKi) is < 5.00 in test [1] and 7.93 in test [2].

For `CCN(CC)C(=O)c1ccc(/C(=N/c2ccccc2)N2CCN(Cc3ccccc3)CC2)cc1`, the pKi in test [1] is < 5.00; in test [2], 6.67. Compound `C=CCN1C[C@H](C)N(/C(=N\c2ccccc2)c2ccc(C(=O)N(CC)CC)cc2)C[C@H]1C` showed a pKi in test [2] of 6.77. As for `CCN1CCN(/C(=N\c2ccccc2)c2ccc(C(=O)N(CC)CC)cc2)CC1`, the pKi in test [1] was 6.00; in test [2] it was 7.80. In the case of `CCN1CCN(/C(=N\c2cccc(Cl)c2)c2ccc(C(=O)N(CC)CC)cc2)CC1`, the pKi was < 6.00 in test [1] and 7.20 in test [2]. For `CCN1CCN(/C(=N\c2cccc(Br)c2)c2ccc(C(=O)N(CC)CC)cc2)CC1`, in that order: < 5.00 and 7.24. On the same counts, the results for `C=CCN1CCN(/C(=N\c2ccccc2)c2ccc(C(=O)N(CC)CC)cc2)CC1` are 6.00 and 6.07.

As for `CCN1CCN(/C(=N\c2cccc(F)c2)c2ccc(C(=O)N(CC)CC)cc2)CC1`, the values for the negative-log Ki (pKi) in test [1] and in test [2] were < 5.00 and 7.23, respectively. For the compound `C=CCN1C[C@H](C)N(/C(=N\c2ccccc2)c2ccc(C(=O)OC)cc2)C[C@H]1C`, in test [2], the pKi is 6.39. Consider `COC(=O)c1ccc(/C(=N/c2ccccc2)N2CCCN(CCc3ccccc3)CC2)cc1`, for which the pKi in test [1] is 6.63; in test [2] it was 6.09. On the same counts, the results for `CCN(CC)C(=O)c1ccc(/C(=N/c2ccccc2C(F)(F)F)N2CCN(CCc3ccccc3)CC2)cc1` are 6.00 and 6.26. With `CCCN(CCC)C(=O)c1ccc(/C(=N/c2ccccc2OC)N2CCN(CC)CC2)cc1`, the figures for the pKi in test [1] and in test [2] were 5.41 and 5.99, respectively. For `CCN(CC)C(=O)c1ccc(/C(=N/c2ccccc2C(F)(F)F)N2CCN(CCOC)CC2)cc1`, in that order: 5.53 and 7.64. For `CCN1CCN(/C(=N\c2ccccc2Cl)c2ccc(C(=O)OC)cc2)CC1`, in that order: < 6.00 and 6.65.

In the case of `CCCN(CCC)C(=O)c1ccc(/C(=N/c2ccccc2Cl)N2CCN(CC)CC2)cc1`, the pKi in test [1] is 5.41; in test [2], 6.53. Take `CCCN1CCN(/C(=N\c2ccccc2Cl)c2ccc(C(=O)OC)cc2)CC1`: the pKi was 5.68 in test [1] and 7.06 in test [2]. For `CCN(CC)C(=O)c1ccc(/C(=N/c2ccccc2Cl)N2CCCN(CCc3ccccc3)CC2)cc1`, in that order: 6.21 and 7.53.

For `CCN1CCN(/C(=N\c2ccccc2F)c2ccc(C(=O)N(CC)CC)cc2)CC1`, the figures for the pKi in test [1] and in test [2] were < 6.00 and 6.93, respectively.

`COC(=O)c1ccc(/C(=N/c2ccccc2Cl)N2CCCN(CCc3ccccc3)CC2)cc1`: the pKi in test [1] is 6.71; in test [2], 7.00. On the same counts, the results for `CCN(CC)C(=O)c1ccc(/C(=N/c2ccccc2)N2CCCN(CCc3ccccc3)CC2)cc1` are 6.40 and 6.27.
